Values quoted from earlier work, collected in patent EP4759315A1, “DRUG PREPARED FROM ORGANIC GERMANIUM COMPOUND AND GLUCOSAMINE COMPOUND, AND USE THEREOF” (Eion International Ltd., priority 2023, dated 2025).

What was measured:
[1] = in vivo

O=C(O)C[CH2][Ge](=[O])[O][Ge](=[O])[CH2]CC(=O)O [Ge-132, bis(carboxyethyl)germanium sesquioxide]
No-Observable-Adverse-Effect Level (NOAEL) [1]: 2000 mg/kg body weight/day | pH of the solution (at the concentration of 1.28 g/100 ml in water): 3.06-3.12 | solubility in water (water): 1.28 g/100 ml
